Measurements reported in patent US12473305B2, “Pyrazole boronic acid compound, pharmaceutical composition containing same, and uses thereof” (BEIJING SONGRUN PHARMACEUTICAL TECHNOLOGY CO., LTD., priority 2020, dated 2025).
Counter-ions that a name gives are not always drawn.

Columns and labels:
[1] = test system: non-small cell lung cancer cell line A549; assay: CellTiter-Glo tumor cell proliferation, A549; type: cell-based, human; details: Homo sapiens, A549, 72 h; for inhibition at 1 µM / inhibition at 10 µM: read-out: Inhibition rate A549 (%)
Description: (§1) The effect of compounds on tumor cell proliferation was detected by CellTiter-Glo method. Human melanoma cell line A375, non-small cell lung cancer cell line A549, human lung adenocarcinoma cell line H1299, colorectal cancer cell line HCT116, liver cancer cell line HepG2 and gastric cancer cell line MGC80-3 were cultured in vitro. The cells were collected after growing to the logarithmic growth phase, centrifuged at 1000 rpm for 5 min, and suspended in an appropriate amount of medium after discarding the supernatant, and the cell concentration was adjusted to 2×10^4/mL. The cell suspension was inoculated onto the 384-well cell culture plate, with 50 μL per well. After being cultured in a cell incubator (37° C., 5% CO2) for 24 h, 5 μL of drug diluted by the cell culture medium was added into each well for the treatment group. Each drug was provided in triplicate. After 72 h incubation in the incubator, 20 μL of CellTiter-Glo was added into each well, and the relative luminescence unit (RLU) was measured with Multimode Microplate Reader Varioskan Flash (Thermo Scientific, USA) after placed at 37° C. for 20 min, and compared with the RLU of the control group. SigmaPlot 10.0 software was used to calculate the inhibition rate and IC50 value.

[2] = test system: Human melanoma cell line A375; assay: CellTiter-Glo tumor cell proliferation, A375; type: cell-based; details: Homo sapiens, A-375, 72 h; for inhibition at 1 µM / inhibition at 10 µM: read-out: Inhibition rate A375 (%)
Description: as §1

[3] = test system: colorectal cancer cell line HCT116; assay: CellTiter-Glo tumor cell proliferation, HCT116; type: cell-based, human; details: 72 h; for inhibition at 1 µM / inhibition at 10 µM: read-out: Inhibition rate HCT116 (%); for IC50: CellTiter-Glo
Description: as §1

Question: `CC(C)C[C@H](NC(=O)Cn1nc(-c2ccccc2OS(=O)(=O)c2ccc(C(F)(F)F)cc2)cc1-c1ccccc1)B(O)O` [Compound 2, (R)-(3-methyl-1-(2-(5-phenyl-3-(2-(((4-(trifluoromethyl)phenyl)sulfonyl)oxy)phenyl)-1H-pyrazol-1-yl)acetamido)butyl)boronic acid] was tested. Which inhibition at 1 µM [1] did it give?
Answer: 15.1%

Question: What about the inhibition at 10 µM [1] of the same compound?
Answer: 61.7%

Question: And the inhibition at 1 µM [2]?
Answer: 8.6%

Question: And the inhibition at 10 µM [2]?
Answer: 97.8%

Question: And the inhibition at 1 µM ([3]; Homo sapiens, HCT-116)?
Answer: 1.4%

Question: And the inhibition at 10 µM ([3]; Homo sapiens, HCT-116)?
Answer: 97.9%

Question: Which results are given for `CC(C)C[C@H](NC(=O)Cn1nc(-c2ccccc2OS(=O)(=O)c2ccccc2C(F)(F)F)cc1-c1ccccc1)B(O)O` [Compound 3, (R)-(3-methyl-1-(2-(5-phenyl-3-(2-(((2-(trifluoromethyl)phenyl)sulfonyl)oxy)phenyl)-1H-pyrazol-1-yl)acetamido)butyl)boronic acid]?
Answer: inhibition at 1 µM [1]: 17.1%; inhibition at 10 µM [1]: 60.6%; inhibition at 1 µM [2]: 5.7%; inhibition at 10 µM [2]: 98.2%; inhibition at 1 µM ([3]; Homo sapiens, HCT-116): 3%; inhibition at 10 µM ([3]; Homo sapiens, HCT-116): 97.8%

Question: Which inhibition at 1 µM [1] does the source give for `CC(C)C[C@H](NC(=O)Cn1nc(-c2ccccc2OS(=O)(=O)c2cccc(F)c2)cc1-c1ccccc1)B(O)O` [Compound 4, (R)-(1-(2-(3-(2-(((3-fluorophenyl)sulfonyl)oxy)phenyl)-5-phenyl-1H-pyrazol-1-yl)-acetamido)-3-methylbutyl)boronic acid] here?
Answer: 15%

Question: What about the inhibition at 10 µM [1] of the same compound?
Answer: 69.3%

Question: And the inhibition at 1 µM [2]?
Answer: 5.6%

Question: What about the inhibition at 10 µM [2] of the same compound?
Answer: 98.2%

Question: What about the inhibition at 1 µM ([3]; Homo sapiens, HCT-116) of the same compound?
Answer: 6.2%

Question: What about the inhibition at 10 µM ([3]; Homo sapiens, HCT-116) of the same compound?
Answer: 97.6%

Question: For `CC(C)C[C@H](NC(=O)Cn1nc(-c2ccccc2OS(=O)(=O)c2cccc(Cl)c2)cc1-c1ccccc1)B(O)O` [Compound 5, (R)-(1-(2-(3-(2-(((3-chlorophenyl)sulfonyl)oxy)phenyl)-5-phenyl-1H-pyrazol-1-yl)-acetamido)-3-methylbutyl)boronic acid], which inhibition at 1 µM [1] is on record?
Answer: 10.2%

Question: What about the inhibition at 10 µM [1] of the same compound?
Answer: 67.2%

Question: And the inhibition at 1 µM [2]?
Answer: 2.2%

Question: And the inhibition at 10 µM [2]?
Answer: 97.9%

Question: And the inhibition at 1 µM ([3]; Homo sapiens, HCT-116)?
Answer: 9%

Question: And the inhibition at 10 µM ([3]; Homo sapiens, HCT-116)?
Answer: 97.3%

Question: `CC(C)C[C@H](NC(=O)Cn1nc(-c2ccccc2OS(=O)(=O)c2cccc(Br)c2)cc1-c1ccccc1)B(O)O` [Compound 6, (R)-(1-(2-(3-(2-(((3-bromophenyl)sulfonyl)oxy)phenyl)-5-phenyl-1H-pyrazol-1-yl)-acetamido)-3-methylbutyl)boronic acid] was tested. Which inhibition at 1 µM [1] did it give?
Answer: 13.3%

Question: What about the inhibition at 10 µM [1] of the same compound?
Answer: 64.7%

Question: What about the inhibition at 1 µM [2] of the same compound?
Answer: 7%

Question: What about the inhibition at 10 µM [2] of the same compound?
Answer: 95%

Question: And the inhibition at 1 µM ([3]; Homo sapiens, HCT-116)?
Answer: 5.9%

Question: And the inhibition at 10 µM ([3]; Homo sapiens, HCT-116)?
Answer: 97%

Question: Which results are given for `CC(C)C[C@H](NC(=O)Cn1nc(-c2ccccc2OS(=O)(=O)c2cc(Cl)ccc2Cl)cc1-c1ccccc1)B(O)O` [Compound 7, (R)-(1-(2-(3-(2-(((2,5-dichlorophenyl)sulfonyl)oxy)phenyl)-5-phenyl-1H-pyrazol-1-yl)-acetamido)-3-methylbutyl)boronic acid]?
Answer: inhibition at 1 µM [1]: 16.5%; inhibition at 10 µM [1]: 52%; inhibition at 1 µM [2]: 3.7%; inhibition at 10 µM [2]: 96%; inhibition at 1 µM ([3]; Homo sapiens, HCT-116): 3.5%; inhibition at 10 µM ([3]; Homo sapiens, HCT-116): 96.6%

Question: What does the source list for `Cc1cccc(S(=O)(=O)Oc2ccccc2-c2cc(-c3ccccc3)n(CC(=O)N[C@@H](CC(C)C)B(O)O)n2)c1` [Compound 8, (R)-(3-methyl-1-(2-(5-phenyl-3-(2-((m-tolylsulfonyl)oxy)phenyl)-1H-pyrazol-1-yl)acetamido)butyl)boronic acid]?
Answer: inhibition at 1 µM [1]: 2.9%; inhibition at 10 µM [1]: 73.4%; inhibition at 1 µM [2]: 1.8%; inhibition at 10 µM [2]: 98.9%; inhibition at 1 µM ([3]; Homo sapiens, HCT-116): 2.1%; inhibition at 10 µM ([3]; Homo sapiens, HCT-116): 98.5%

Question: Which results are given for `CC(C)C[C@H](NC(=O)Cn1nc(-c2ccccc2OS(=O)(=O)c2cccs2)cc1-c1ccccc1)B(O)O` [Compound 9, (R)-(3-methyl-1-(2-(5-phenyl-3-(2-((thiophen-2-ylsulfonyl)oxy)phenyl)-1H-pyrazol-1-yl)acetamido)butyl)boronic acid]?
Answer: inhibition at 1 µM [1]: 3.6%; inhibition at 10 µM [1]: 83.2%; inhibition at 1 µM [2]: 4.6%; inhibition at 10 µM [2]: 98.3%; inhibition at 1 µM ([3]; Homo sapiens, HCT-116): 2.9%; inhibition at 10 µM ([3]; Homo sapiens, HCT-116): 98.3%

Question: Which results are given for `CC(C)C[C@H](NC(=O)Cn1nc(-c2ccccc2OS(=O)(=O)c2ccccn2)cc1-c1ccccc1)B(O)O` [Compound 10, (R)-(1-(2-(3-(2-((pyridin-2-ylsulfonyl)oxy)phenyl)-5-phenyl-1H-pyrazol-1-yl)acetamido)-3-methylbutyl)boronic acid]?
Answer: inhibition at 1 µM [1]: 0.1%; inhibition at 10 µM [1]: 72.9%; inhibition at 1 µM [2]: 1.5%; inhibition at 10 µM [2]: 98%; inhibition at 1 µM ([3]; Homo sapiens, HCT-116): 6.6%; inhibition at 10 µM ([3]; Homo sapiens, HCT-116): 98%

Question: `CC(C)C[C@H](NC(=O)Cn1nc(-c2cccc(OS(=O)(=O)c3cccc(C(F)(F)F)c3)c2)cc1-c1ccccc1)B(O)O` [Compound 11, (R)-(3-methyl-1-(2-(5-phenyl-3-(3-(((3-(trifluoromethyl)phenyl)sulfonyl)oxy)phenyl)-1H-pyrazol-1-yl)acetamido)butyl)boronic acid] was tested. Which inhibition at 1 µM [1] did it give?
Answer: 63.4%

Question: And the inhibition at 10 µM [1]?
Answer: 90.3%

Question: And the IC50 ([1]; CellTiter-Glo)?
Answer: 1.06 µM

Question: What about the inhibition at 1 µM [2] of the same compound?
Answer: 90.2%

Question: And the inhibition at 10 µM [2]?
Answer: 98.8%

Question: And the IC50 ([2]; CellTiter-Glo)?
Answer: 2.6 µM

Question: What about the inhibition at 1 µM ([3]; Homo sapiens, HCT-116) of the same compound?
Answer: 95.4%

Question: What about the inhibition at 10 µM ([3]; Homo sapiens, HCT-116) of the same compound?
Answer: 98.4%

Question: What about the IC50 ([3]; Homo sapiens, HCT-116) of the same compound?
Answer: 0.7 µM

Question: How did the inhibition at 1 µM [1] turn out when `CC(C)C[C@H](NC(=O)Cn1nc(-c2ccc(OS(=O)(=O)c3cccc(C(F)(F)F)c3)cc2)cc1-c1ccccc1)B(O)O` [Compound 12, (R)-(3-methyl-1-(2-(5-phenyl-3-(4-(((3-(trifluoromethyl)phenyl)sulfonyl)oxy)phenyl)-1H-pyrazol-1-yl)acetamido)butyl)boronic acid] was run?
Answer: 45.5%

Question: What about the inhibition at 10 µM [1] of the same compound?
Answer: 85.3%

Question: And the inhibition at 1 µM [2]?
Answer: 83%

Question: And the inhibition at 10 µM [2]?
Answer: 98.7%

Question: And the inhibition at 1 µM ([3]; Homo sapiens, HCT-116)?
Answer: 45.8%

Question: What about the inhibition at 10 µM ([3]; Homo sapiens, HCT-116) of the same compound?
Answer: 96.3%

Question: `CC(C)C[C@H](NC(=O)Cn1nc(-c2ccccc2OS(=O)(=O)c2cccc(C(F)(F)F)c2)cc1-c1ccc(Br)cc1)B(O)O` [Compound 13, (R)-(1-(2-(5-(4-bromophenyl)-3-(2-(((3-(trifluoromethyl)phenyl)sulfonyl)oxy)phenyl)-1H-pyrazol-1-yl)acetamido)-3-methylbutyl)boronic acid] was tested. Which inhibition at 1 µM [1] did it give?
Answer: 4.5%

Question: What about the inhibition at 10 µM [1] of the same compound?
Answer: 10.4%

Question: What about the inhibition at 1 µM [2] of the same compound?
Answer: 8.1%

Question: And the inhibition at 10 µM [2]?
Answer: 41.3%

Question: What about the inhibition at 1 µM ([3]; Homo sapiens, HCT-116) of the same compound?
Answer: 8.2%

Question: What about the inhibition at 10 µM ([3]; Homo sapiens, HCT-116) of the same compound?
Answer: 3.3%

Question: What does the source list for `CC(C)C[C@H](NC(=O)Cn1nc(-c2ccccc2OS(=O)(=O)c2cccc(C(F)(F)F)c2)cc1-c1cccc(Br)c1)B(O)O` [Compound 14, (R)-(1-(2-(5-(3-bromophenyl)-3-(2-(((3-(trifluoromethyl)phenyl)sulfonyl)oxy)phenyl)-1H-pyrazol-1-yl)acetamido)-3-methylbutyl)boronic acid]?
Answer: inhibition at 1 µM [1]: 10.8%; inhibition at 10 µM [1]: 8%; inhibition at 1 µM [2]: 16.5%; inhibition at 10 µM [2]: 50.4%; inhibition at 1 µM ([3]; Homo sapiens, HCT-116): 9.9%; inhibition at 10 µM ([3]; Homo sapiens, HCT-116): 9.2%

Question: For `CC(C)[C@H](NC(=O)Cn1nc(-c2ccccc2OS(=O)(=O)c2cccc(C(F)(F)F)c2)cc1-c1ccccc1Br)B(O)O` [Compound 15, (R)-(1-(2-(5-(2-bromophenyl)-3-(2-(((3-trifluoromethylphenyl)sulfonyl)oxy)phenyl)-1H-pyrazol-1-yl)acetamido)isobutyl)boronic acid], which inhibition at 1 µM [1] is on record?
Answer: 7.5%

Question: And the inhibition at 10 µM [1]?
Answer: 1.5%

Question: What about the inhibition at 1 µM [2] of the same compound?
Answer: 3%

Question: What about the inhibition at 10 µM [2] of the same compound?
Answer: 67.2%

Question: And the inhibition at 1 µM ([3]; Homo sapiens, HCT-116)?
Answer: 5%

Question: And the inhibition at 10 µM ([3]; Homo sapiens, HCT-116)?
Answer: 3.6%

Question: For `CC(C)[C@H](NC(=O)CN1NC(C)(c2cccc(OCCN3CCCC3)c2)C=C1c1ccccc1)B(O)O` (stereo partly drawn) [Compound 33, (R)-(3-methyl-1-(2-(5-phenyl-3-(3-(2-(pyrrolidin-1-yl)ethoxy)phenyl)-1H-pyrazol-1-yl)acetamido)isobutyl)boronic acid hydrochloride], which IC50 ([3]; Homo sapiens, HCT-116) is on record?
Answer: 0.925 µM

Question: Which IC50 ([3]; Homo sapiens, HCT-116) does the source give for `CC(C)[C@H](NC(=O)CN1NC(C)(c2cccc(OCCN3CCCCC3)c2)C=C1c1ccccc1)B(O)O` (stereo partly drawn) [Compound 34, (R)-(3-methyl-1-(2-(5-phenyl-3-(3-(2-(piperidin-1-yl)ethoxy)phenyl)-1H-pyrazol-1-yl)acetamido)isobutyl)boronic acid hydrochloride] here?
Answer: 0.891 µM

Question: Which IC50 ([3]; Homo sapiens, HCT-116) does the source give for `CC(C)C[C@H](NC(=O)Cn1nc(-c2cccc(OCCN3CC(C)OC(C)C3)c2)cc1-c1ccccc1)B(O)O` (stereo partly drawn) [Compound 36, ((1R)-1-(2-(3-(3-(2-(2,6-dimethylmorpholino)ethoxy)phenyl)-5-phenyl-1H-pyrazol-1-yl)acetamido)-3-methylbutyl)boronic acid hydrochloride] here?
Answer: 0.057 µM

Question: How did the IC50 [3] turn out when “(R)-(1-(2-(3-(N,N-diethylethoxy)phenyl)-5-phenyl-1H-pyrazol-1-yl)acetamido)isobutyl)boronic acid hydrochloride [Compound 32]” was run?
Answer: 0.427 µM

Question: Which IC50 [3] does the source give for “(R)-(3-methyl-1-(2-(3-(3-(2-(4-methylpiperazin-1-yl)ethoxy)phenyl)phenyl)-5-phenyl-1H-pyrazol-1-yl)acetamido)butyl)boronic acid hydrochloride [Compound 35]” here?
Answer: 0.281 µM
